# US8557300B2 (priority 2005, dated 2013)
# Like-named read-outs stand apart in the source and are kept apart here.
# Tests used:
# nor CB mutant of FRD1 = conditions: pH 6.5
# [1] = tested on: PA sputum isolates CF-1 to CF-5; conditions: CF-1 to CF-4, 15 mM NO2^−, pH 6.5, anaerobic, 1 day
# From the text: The effect of HNO2 on the killing of sputum isolates from CF patients is also monitored.
# [2] = tested on: mucoid CF clinical isolates of PA
# Experimental: (§1) The CFU in the inoculum versus that after a 4 day anaerobic incubation are determined.
# (§2) The PA strains used in this study include laboratory strains PAO1 (5), CF isolate FRD1 (6), other sputum isolates from CF patients, and sixteen mucoid isolates. Complementation of the mucA mutant allele of strain FRD1 is achieved by transformation with ptacmucA. Aerobic starter cultures are grown in L-broth (10 g tryptone, 5 g NaCl and 5 g yeast extract, per liter) at 37° C. […] To support anaerobic respiration, KNO3 and/or NaNO2 are added to the medium. The pH of the medium is adjusted with 100 mM sodium phosphate (for pH 6.5) or 100 mM sodium acetate (for pH 5.5). To enumerate viable cells in cultures, colony forming units (CFU) are determined.
# FRD1 and FRD1/pmucA [3] = tested on: FRD1 and FRD1/pmucA
# Experimental: The FRD1 and FRD1/pmucA are seeded on LB agar and buffered at the indicated pH.
# Plates are incubated for 2 days under anaerobic conditions.
# [4] = tested on: mucoid FRD1 and nonmucoid FRD1/pmucA; conditions: pH 6.5/15 mM NO2^− versus pH 5.5/[…] NO2^−
# [5] = tested on: nonmucoid PAO1, mucoid FRD1, nonmucoid FRD1/pmucA; conditions: pH 6.5, anaerobic
# Experimental: The colony forming units (CFU) are enumerated each day and plotted.
# Based upon the slightly acidic pH measurements of segmental and subsegmental bronchi from CF transplant patients, discussed above, well-characterized P. aeruginosa strains are grown at pH 6.5 under strict anaerobic conditions.
# as §2
# [6] = tested on: CF airway epithelial cultures
# Experimental: Transepithelial short circuit current (Isc in μA/Cm^2) is measured to monitor any change in bioelectric properties.
# A primary culture of human airway epithelial cells is performed. […] LDH is measured using a commercially available spectrophotometric assay kit (Biovision Research Products, Mountain View, Calif.) according to the manufacturer's instructions. Then, the bioelectric properties of cultured airway epithelial cells are analyzed.
# mucoid FRD1 [7] = tested on: mucoid FRD1
# Experimental: as §2
# [8] = tested on: PA strains isolated from 5 different young CF patients; conditions: 15 mM NO2^−
# Experimental: as §2
# [9] = tested on: human CF airway epithelium; conditions: up to 20 times the dose required to kill mucoid mucA mutant PA, 2 μl apical, pH 6.5, 24 hr
# Staphylococcus aureus = conditions: slightly acidified
# From the text: The current last resort for treatment against these antibiotic resistant strains is with vancomycin.
# [10] = tested on: mucoid FRD1 and nonmucoid FRD1/pmucA; conditions: 15 mM NO2^−, pH 6.5, anaerobic, 5 days
# Experimental: The black bars indicate non-mucoid FRD1/pmucA and the gray bars indicate mucoid FRD1.
# as §2
# [11] = tested on: anaerobic biofilms of FRD1 and FRD1/pmucA
# Experimental: For the confocal laser microscopic analysis of anaerobic FRD1 biofilms, live cells are stained with syto-9, and dead cells are stained with propidium iodide.
# An 8-chambered coverslip system (Lab-Tek Inc., Campbell, Calif.) is used for biofilm architecture and viability experiments. […] Bacterial viability staining and image acquisition are accomplished as described previously by Sparkman et al.
# Anaerobic biofilms of strains FRD1 and FRD1/pmucA are grown for 1 day in media containing NO3^−, which supports anaerobic respiration.
# [12] = tested on: PA mucA, mucB, mucD, algW, algD, algT(U) mutant strains and clinical isolates
# Experimental: Other than mucA, the aforementioned genes are the only reported loci that, when inactivated, allow for mucoid conversion in PA (25-27).
# as §2
# [13] = apical, cultured CF airway epithelia; preliminary studies
# Experimental: (§3) For experiments measuring transepithelial water flux, the primary cultures of airway epithelia are cultured in a specially humidified incubator, to prevent evaporative water loss from the culture surface. […] BD concentration is measured optically and IL-8 concentrations in basolateral media are measured using commercially available antibody pairs (R&D Systems, Minneapolis, Minn.) according to the manufacturer's instructions. […] At various time points, aliquots of apical liquid are aspirated and stored at −20° C.
# [14] = tested on: CF airway epithelial cultures; conditions: 15 mM NO2^−, 24 hr
# Experimental: as §3
# [15] = tested on: primary cultures of CF airway epithelia; conditions: 15 mM NO2^−, 24 hr
# Experimental: as §3
# [16] = tested on: mucoid FRD1 and nonmucoid FRD1/pmucA in mouse lungs
# Experimental: CD1 mice are infected with FRD1 or FRD1/pmucA.
# CD1 mice are infected with ˜10^6 FRD1 or FRD1/pmucA entrapped in agar beads intratracheally. […] On the fifth day, the mice are sacrificed and the viable bacteria from the lung homogenates are enumerated.
# The efficacy of HNO2 to kill strain FRD1 in a PA chronic lung infection model is then determined.
# mucoid FRD1 [17] = experiment: Protection of mucoid FRD1 from acidified NO2^− by NO scavengers (FIG. 9); type: cell-based, Pseudomonas aeruginosa; conditions: millimolar concentrations (5 mM); LB pH 6.5, 15 mM NO2^−
# From the text: Line 3 is the FRD1 control bacteria alone.
# [18] = tested on: mucoid CF clinical isolates of PA; type: cell-based, Pseudomonas aeruginosa; conditions: isolates marked by black arrows in FIG. 6
# Experimental: as §1
# FRD1 and FRD1/pmucA [19] = experiment: NO gas exposure of bacterial suspension (FIG. 10); type: cell-based, Pseudomonas aeruginosa; conditions: 380 nM solution concentration of NO, LB pH 6.5, 24 hr anaerobic
# Experimental: A NO gas at 333 ppm is balanced with pure argon and continuously bubbled for 24 hr anaerobically.
# Nitric oxide (NO) gas (200 ppm, 0.4 μM) balanced with Ar is anaerobically delivered to a water-jacketed chamber in which ˜10^8 bacteria/ml are suspended. […] Gas flow is constantly maintained at 3 ml/min. Pure Ar gas is used as a control.
# mucoid strain FRD1 = conditions: FRD1, CF ultrasupernatants pH 6.24, 15 mM NO2^−
# Experimental: CFU are determined (n=3) and plotted as the X±SEM vs. time.
# Purulent secretions are harvested from the airways of CF lungs which physicians remove at the time of lung transplantation.
# FRD1 in mouse lungs = conditions: FRD1-infected mice, daily 15 mM NO2^− pH 6.5 for 16 days
# [20] = tested on: FRD1 and FRD1/pmucA in CD1 mouse airways
# [21] = tested on: sodAsodB mutant of strain PAO1; conditions: aerobic conditions, LB pH 6.5, 15 mM NO2^−
# Experimental: CFU are measured daily and plotted in logarithmic scale. For aerobic samples, strains are grown with vigorous shaking (300 rpm).
compound,measurement,setting,value
"O=NO [NO2^−, nitrite]",sensitivity of norCB mutant relative to FRD1,nor CB mutant of FRD1,~10 fold
same,viability of mucoid mucA mutant sputum isolates,[1],a sharp decrease in viability
same,mucA mutant mucoid isolates showing increased susceptibility,"[2]; 15 mM NO2^−, pH 6.5, anaerobic",78 out of 82
same,"number of mucoid isolates with wild-type mucA allele resistant, out of 12",[2]; acidified NO2^−,8
same,sensitivity of 4 antibiotic-resistant strains,[2]; anaerobic treatment with acidified NO2^−,still sensitive
same,share of isolates killed by more than 2 logs,"[2]; mucA mutant mucoid isolates, 15 mM NO2^−, pH 6.5, anaerobic",74%
same,killing versus pH,"FRD1 and FRD1/pmucA [3]; FRD1, filter disc 10 μl of 1 M NO2^−, anaerobic 48 hours",more effectively at lower pH
same,killing versus pH,"FRD1 and FRD1/pmucA [3]; FRD1/pmucA, pH values between 6.0 and 7.5",little or no killing
same,killing of mucoid bacteria at identical HNO2 concentrations,[4],equal killing
same,viability of nonmucoid strains PAO1 and FRD1/pmucA,"[5]; 15 mM NO2^−, 4 day incubation",remained viable
same,rate of killing,"[5]; mucoid FRD1, 15 mM NO2^−",90 % per day
same,amiloride-sensitive Isc,"[6]; 15 mM NO2^− treated (control 15.4±1.4, p=0.92)",15.7±1.7 μA/cm^2
same,UTP-activated Isc,"[6]; 15 mM NO2^− treated (control 17.7±3.0, p=0.92)",18.1±3.3 μA/cm^2
same,basal transepithelial short circuit current (Isc),[6]; NO2^− at varying concentrations,not affected
same,LD50,"mucoid FRD1 [7]; mucoid FRD1, pH 6.5, 24 hr anaerobic",~3 mM
same,bacteria killed,mucoid FRD1 [7]; pH 6.5,Ninety to ninety-five
same,killing on long-term exposure,mucoid FRD1 [7]; pH 6.5,all organisms are killed
same,"killing of mucoid variants of patients A, B, C and D",[8],1.9-3.1 logs
same,cytotoxicity by lactate dehydrogenase release,[9],no cytotoxicity
same,susceptibility of Staphylococcus aureus incl. MRSA,Staphylococcus aureus,exhibited susceptibility
same,viability of nonmucoid FRD1/pmucA after mixed incubation,[10],maintains viability
same,CFU of mucoid FRD1 after mixed incubation,[10]; three bacterial ratios,< 10^3 CFU/ml
same,biofilm response,"[11]; FRD1/pmucA biofilm, acidified NO2^−",resistance to acidified NO2^− is clearly evident
same,death of biofilm organisms,"[11]; FRD1 biofilm, 15 mM NO2^−, pH 6.5, 2 days",nearly complete death of biofilm organisms
same,biofilm structure and cell viability relative to control,"[11]; FRD1 biofilm, 15 mM NO2^−, pH 7.5, 2 days",no difference in biofilm structure and cell viability
same,LD50 for sensitive strains compared with FRD1,[12],almost identical to that for FRD1
same,sensitivity of FRD1 derived nonmucoid mutants ΔalgD and ΔalgT(U),[12],equally sensitive
same,sensitivity of PDO300 (PAO1 mucA22),[12],sensitive
same,"sensitivity of mucB, mucD and algW mutants of PAO1",[12],not sensitive
same,half-life of NO2^− on CF airway surfaces,[13],~5 h
same,transepithelial water flux (Jv),[14],does not alter transepithelial water flux
same,immune response as release of IL-8,[15],does not cause activation of an immune response
same,in vitro sensitivity of organisms recovered from mouse airways after exposure,"[16]; mouse, in vivo",still sensitive
CC1(C)N([O])C(c2ccc(C(=O)O)cc2)=[N+]([O-])C1(C)C [carboxy-PTIO],protection of FRD1 from killing by acidified NO2^−,mucoid FRD1 [17],strong protective effect
gentamycin,resistance of 4 clinical isolates,[18],highly resistant
NC[C@H]1O[C@H](O[C@H]2[C@H](O)[C@@H](O[C@H]3O[C@H](CO)[C@@H](O)[C@H](N)[C@H]3O)[C@H](N)C[C@@H]2N)[C@H](N)C[C@@H]1O [tobramycin],resistance of 4 clinical isolates,[18],highly resistant
NCC[C@H](O)C(=O)N[C@@H]1C[C@H](N)[C@@H](O[C@H]2O[C@H](CN)[C@@H](O)[C@H](O)[C@H]2O)[C@H](O)[C@H]1O[C@H]1O[C@H](CO)[C@@H](O)[C@H](N)[C@H]1O [amikacin],resistance of 4 clinical isolates,[18],highly resistant
"[N]=O [NO, nitric oxide]",killing of FRD1 by NO/Ar gas mixture,FRD1 and FRD1/pmucA [19],is killed
"O=NO [HNO2, nitrous acid]",HNO2 concentration,pH 6.5/15 mM NO2^− and pH 5.5/[…] NO2^−,~10 µM
same,HNO2 concentration,pH 6.5 and 15 mM NO2^−,10.62 µM
same,speed of killing compared with L-broth,mucoid strain FRD1,killed faster
same,bacteria in lung after long-term treatment,FRD1 in mouse lungs,no bacteria detected
same,competitive index,"[20]; complemented strain FRD1/pmucA, 6 days",~1.0
same,competitive index,[20]; {},~0.2
same,decrease of mucoid FRD1 in lung,[16]; pH 5.5,> 3 logs
same,decrease of mucoid FRD1 in lung,"[16]; pH 6.5, 15 mM NO2^− intranasal",> 2 logs
same,decrease of nonmucoid FRD1/pmucA in lung,[16]; pH 6.5 and pH 5.5,"but not nonmucoid FRD1/pmucA, are decreased"
same,sensitivity of sodAsodB mutant,[21],not sensitive
CC(C)(O/N=C(\C(=O)N[C@@H]1C(=O)N2C(C(=O)[O-])=C(C[n+]3ccccc3)CS[C@H]12)c1csc(N)n1)C(=O)O [ceftazidime],resistance of 4 clinical isolates,[18],highly resistant
"O=[N+]([O-])O [NO3^−, nitrate, reference compound]","viability patterns of FRD1, PAO1 and FRD1/pmucA",[5]; 15 mM NO3^−,no difference in viability patterns is observed
